Results on 16 compounds are retold here after US5214054A, “Azacyclic carboxylic acid derivatives and their preparation and use” (Novo Nordisk A/S, priority 1988, dated 1993).

Where a name gives a salt, the structure may show the parent alone.

The subject of the first data set is [^3 H]-GABA uptake. The data set can be described thus: in vitro inhibition of [^3 H]-GABA uptake. Conditions: Male Wistar rat cortical tissue, 60 min, 30° C., pH 7.5, ligand 0.2 nM. The format is biochemical. As for the experimental part: The in vitro inhibition of [^3 H]-GABA uptake was assessed essentially by the method of Fjalland (Acta Pharmacol. Toxicol. 42 (1978) 73-76). Male Wistar rat cortical tissue was gently homogenized by hand using a glass teflon homogenizer in 10 volumes of 0.32M sucrose. Incubation was performed in a 40 mM tris HCl buffer (pH 7.5 at 30° C.) containing […], […], 4 mM MgSO4, 2.3 mM CaCl2 and 10 mM glucose, for 60 min. at 30° C. Ligand concentration was 0.2 nM.
Turning to `O=C(O)[C@@H]1CCCN(CCON=C(c2ccccc2)c2ccccc2)C1` [Example 1, (R)-Diphenylmethanone O-[2-(3-carboxypiperidin-1-yl)ethyl]oxime], the IC50 is 82 nM.
Still for that read-out and setting: the result for `Cc1ccccc1C(=NOCCN1CCC[C@@H](C(=O)O)C1)c1sccc1C` [Example 2, (R)-(2-Methylphenyl)-(3-methyl-2-thienyl)methanone O-[2-(3-carboxypiperidin-1-yl)ethyl]oxime hydrochloride] reads 44 nM; that for `Cc1ccsc1C(=NOCCN1CCC[C@@H](C(=O)O)C1)c1sccc1C` [Example 3, (R)-Bis(3-methyl-2-thienyl)methanone O-[2-(3-carboxypiperidin-1-yl)ethyl]oxime hydrochloride], 30 nM.
Same read-out and setting: the result for `CCc1ccccc1C(=NOCCN1CCC[C@@H](C(=O)O)C1)c1sccc1C` [Example 4, (R)-(2-Ethylphenyl)-(3-methyl-2-thienyl)methanone O-[2-(3-carboxypiperidin-1-yl)ethyl]oxime hydrochloride] reads 52 nM; that for `Cc1ccsc1C(=NOCCN1CCC[C@@H](C(=O)O)C1)c1cccs1` [Example 5, (R)-(3-Methyl-2-thienyl)-(2-thienyl)methanone O-[2-(3-carboxypiperidin-1-yl)ethyl]oxime], 64 nM.
Same read-out and setting: in the case of `O=C(O)C1CCCN(CCON=C(c2ccccc2)c2ccccc2)C1` (centres unmarked) [Example 25, Diphenylmethanone O-[2-(3-carboxypiperidin-1-yl)ethyl]oxime hydrochloride] it was 138 nM; in that of `Cc1ccccc1C(=NOCCN1CCCC(C(=O)O)C1)c1sccc1C` (centres unmarked) [Example 26, (2-Methylphenyl)-(3-methyl-2-thienyl)methanone O-[2-(3-carboxypiperidin-1-yl)ethyl]oxime hydrochloride], 58 nM; in that of `O=C(O)C1=CCCN(CCON=C(c2ccccc2)c2ccccc2)C1` [Example 45, Diphenylmethanone O-[2-(3-carboxy-1,2,5,6-tetrahydropyridin-1-yl)ethyl]oxime], 48 nM.
Compound `Cc1ccsc1C(=NOCCN1CCC=C(C(=O)O)C1)c1sccc1C` [Example 46, Bis(3-methyl-2-thienyl)methanone O-[2-(3-carboxy-1,2,5,6-tetrahydropyridin-1-yl)ethyl]oxime hydrochloride] returned an IC50 of 59 nM.
On the same count and under the same terms, in the case of `Cc1ccsc1C(=NOCCN1CCC[C@H](C(=O)O)C1)c1sccc1C` [Example 47, (S)-Bis(3-methyl-2-thienyl)methanone O-[2-(3-carboxypiperidin-1-yl)ethyl]oxime hydrochloride] it was 51 nM; in that of `O=C(O)[C@@H]1CCCN(CCON=CC(c2ccccc2)c2ccccc2)C1` [Example 83, E/Z-(R)-2,2-Diphenylacetaldehyde O-[2-(3-carboxy-piperidin-1-yl)ethyl]oxime hydrochloride], 217 nM.

Another data set relates to GABA uptake.
Assay: not given
The settings on record: background art; cited from earlier work.
As to `O=C(O)C1CCCN(CCC=C(c2ccccc2)c2ccccc2)C1` (centres unmarked) [SK&F 89976A, N-(4,4-diphenyl-3-buten-1-yl)nipecotic acid], the “inhibition of GABA re-uptake / uptake (in words)” value is recorded as “oral inhibitors of GABA uptake”.
Regarding `O=C(O)C1=CCCN(CCC=C(c2ccccc2)c2ccccc2)C1` [SK&F 100330A, N-(4,4-diphenyl-3-buten-l-yl)guvacine], the “inhibition of GABA re-uptake / uptake (in words)” value is listed as “oral inhibitors of GABA uptake”.
As to `O=C(O)CC1CCN(CCC=C(c2ccccc2)c2ccccc2)C1` (stereo not drawn) [SK&F 100561, N-(4,4-diphenyl-3-buten-1-yl)homo-β-proline], the “inhibition of GABA re-uptake / uptake (in words)” value is on record as “oral inhibitors of GABA uptake”.
For `O=C(O)C1CCCN(CCC=C(c2ccccc2)c2cccs2)C1` (centres unmarked) [SK&F 100604J, N-(4-phenyl-4-(2-thienyl)-3-buten-1-yl)nipecotic acid], the “inhibition of GABA re-uptake / uptake (in words)” value was “oral inhibitors of GABA uptake”.
For the compound `O=C(O)C1CCCNC1` (centres unmarked) [piperidine-3-carboxylic acid], the “inhibition of GABA re-uptake / uptake (in words)” value is “potent inhibitor of GABA re-uptake”.

System in another data set: not given
Assay: not given
Conditions: background art; cited from earlier work.
`O=C(O)C1CCCNC1` (centres unmarked) [piperidine-3-carboxylic acid]: the “ability to cross the blood-brain barrier (in words)” value is “unable to cross the blood-brain b arrier”.

One may read the IC50 as the concentration that gives 50% inhibition.
